Assay results published in US20090023700A1, “NEUROPROTECTIVE TREATMENTS” (University of Louisville Research Foundation, priority 2007, published 2009).

Key:
[1] = tested on: PTPs; conditions: cited from earlier work
[2] = tested on: RECA1; test: RECA1 immunostaining (dorsal column blood vessels at epicenter) after T9 contusion; assay type: in vivo, rat; conditions: for area of blood vessels (RECA1) in the dorsal column: 7 d infusion started immediately after injury
Procedure: Another potential contributor to axon loss is ischemia caused by blood vessel loss. To test this possibility, the same sections were analyzed for the extent of endothelial cell/blood vessel sparing by immunostaining for RECA1. […] Therefore, epicenter RECA1 was measured in additional 7 d postinjury groups, excluding those infused at the epicenter and those with an epicenter transection (SEP), which damaged the tissue. The bpV(phen) treatment (started immediately after the injury) increased the area of blood vessels in the dorsal column in those rats infused with 30 and 100 μM bpV(phen) (FIG. 8E). […] However, there was no correlation between RECA1- and EC-stained dorsal column epicenter white matter (p=0.98).
Anterogradely labeled sensory fibers and terminals were visualized in every third section through both gracile nuclei by DAB-based immunostaining for CTB as described previously (Baker et al. (2007) Exp Neurol 205:82-91). The lumbar sections were stained to ensure that the CTB injections were successful as evidenced by traced afferents and motor neurons. […] The epicenter of maximal injury was determined by the rostrocaudal level with the least amount of spared white matter per transverse section. […]
(§1) Quantitative measurements and statistics. The extent of sensory innervation of the gracile nucleus was determined by measuring the CTB-labeled terminal fiber area in every third section as described previously (Baker et al. (2007) Exp Neurol 205:82-91). In short, images of every third section through the right and left gracile nuclei were analyzed using the density slice feature of the Scion Image software. […] Images of EC-stained sections were captured, and the positive areas were measured with Scion Image. […] The number of spared myelinated axons at C3 was counted in semithin sections using a 63× oil objective in 15.7×15.7 μm grids placed over the middle part of each fasciculus gracilis (see FIG. 4D-4F). […]

[3] = tested on: human aortic endothelial cells; test: Apoptosis of serum-deprived cultured endothelial cells; assay type: cell-based; conditions: for apoptotic endothelial cells: 3 μM
Procedure: To determine whether bpV(phen) can directly promote survival of endothelial cells, it was tested on cultured human aortic endothelial cells deprived of serum. […] With 3 μM bpV(phen), only ˜1.3% were apoptotic in both the 0 and 5% serum groups (FIG. 9A). Eighteen hours after plating under control conditions, between 5 and 13% of endothelial cells were apoptotic, whereas treatment with 3 μM bpV(phen) reduced apoptosis to ˜2-3% (FIG. 9B).
Endothelial cell cultures. Human aortic endothelial cells (Lonza Walkersville) were plated at 5×10^4 cells per well in 24 well polystyrene plates and incubated with different concentrations of bpV(phen) for 6 or 18 h at 37° C. in DMEM/Ham's F-12 (BioWhittaker) plus EGM-2 growth factor supplements [EGM-2 SingleQuots (Lonza Walkersville) containing hydrocortisone, human epidermal growth factor, FBS, vascular endothelial growth factor, human basic fibroblast growth factor, R3-IGF-1, ascorbic acid, heparin, and gentamicin/amphotericin-B] and 10-20% fetal calf serum. […] Afterward, the endothelial cells were fixed in 4% paraformaldehyde for 2 h, the nuclei were stained with 2.5 μg/ml DNA dye Hoechst 33258 (bis-benzimide; Sigma) in PBS containing 0.1% Triton X-100 for 30 min, and the cells were covered with Fluoromount-G (Southern Biotechnology) to reduce fluorescence-induced fading (Invitrogen).
as §1

**Q.** With O.O.O.OO.OO.[K+].[OH-].[V].c1cnc2c(c1)ccc1cccnc12 [bpV(phen), potassium bisperoxo(1,10-phenanthroline)oxovanadate (V)] as the compound, how does the “inhibition of PTPs” value [1] read?
**A.** inhibits

**Q.** And the “area of blood vessels (RECA1) in the dorsal column” value ([2]; 30 μM)?
**A.** increased

**Q.** And the “area of blood vessels (RECA1) in the dorsal column” value ([2]; 100 μM)?
**A.** increased

**Q.** And the “blood vessels (RECA1) in the dorsal column at the epicenter” value ([2]; 7 d infusion started 4 h after injury, area not significantly different from sham)?
**A.** sparing

**Q.** What about the endothelial apoptosis ([3]; 1 μM, 18 h, 0, 1.25, 2.5 and 5% serum) of the same compound?
**A.** only reduces endothelial apoptosis in the 2.5 and 5% serum groups

**Q.** What about the apoptotic endothelial cells ([3]; 6 h after plating, 0 and 5% serum groups, control 2-3%) of the same compound?
**A.** ~1.3%

**Q.** And the apoptotic endothelial cells ([3]; 18 h after plating, serum deprived, control 5-13%)?
**A.** 2-3%
